Test results published in ChEMBL document CHEMBL3046588, “Design, synthesis, and in vitro evaluation of cytotoxic activity of new substituted 1,4-benzoquinones and hydroquinones” (2007).

test system: not listed separately; assay: Cytotoxicity against Homo sapiens (human) colon cancer cells after 48 hr by SRB assay; assay type: functional; conditions: Cancer cell lines

Row | Compound | GI50 [µM] | TGI [µM]
1 | CC(=O)NS(=O)(=O)c1ccc(-n2nc(-c3ccccc3)cc2C2=CC(=O)C=CC2=O)cc1 | 78.4 | 100
2 | CC1=NN(c2ccc(Br)cc2)C(=O)C1CC(=O)c1cc(O)ccc1O (stereo not drawn) | 36 | 45.5
3 | O=C(CC1C(=O)NN(c2ccc(Br)cc2)C1=O)c1cc(O)ccc1O (stereo not drawn) | 17.7 | 43.3
4 | COc1ccc(OC)c(-c2cc(-c3ccccc3)nn2-c2ccc(S(=O)(=O)NC(C)=O)cc2)c1 | 3.74 | 18.2

test system: not listed separately; assay: Cytotoxicity against Homo sapiens (human) leukemia cells after 48 hr by SRB assay; assay type: functional; conditions: Leukemia cell

Row | Compound | GI50 [µM] | TGI [µM]
5 | CC(=O)NS(=O)(=O)c1ccc(-n2nc(-c3ccccc3)cc2C2=CC(=O)C=CC2=O)cc1 | 57.8 | 91.2
6 | CC1=NN(c2ccc(Br)cc2)C(=O)C1CC(=O)c1cc(O)ccc1O (stereo not drawn) | 7.75 | 35.8
7 | O=C(CC1C(=O)NN(c2ccc(Br)cc2)C1=O)c1cc(O)ccc1O (stereo not drawn) | 34.1 | 50
8 | COc1ccc(OC)c(-c2cc(-c3ccccc3)nn2-c2ccc(S(=O)(=O)NC(C)=O)cc2)c1 | 7.4 | 53.4

test system: not listed separately; assay: Cytotoxicity against Homo sapiens (human) melanoma cellsafter 48 hr by SRB assay; assay type: functional; conditions: Melanoma cell

Row | Compound | GI50 [µM] | TGI [µM]
9 | CC(=O)NS(=O)(=O)c1ccc(-n2nc(-c3ccccc3)cc2C2=CC(=O)C=CC2=O)cc1 | 92 | 100
10 | CC1=NN(c2ccc(Br)cc2)C(=O)C1CC(=O)c1cc(O)ccc1O (stereo not drawn) | 28 | 42.6
11 | O=C(CC1C(=O)NN(c2ccc(Br)cc2)C1=O)c1cc(O)ccc1O (stereo not drawn) | 22 | 42.4
12 | COc1ccc(OC)c(-c2cc(-c3ccccc3)nn2-c2ccc(S(=O)(=O)NC(C)=O)cc2)c1 | 15.4 | 36.2

test system: MCF7; assay: Cytotoxicity against Homo sapiens (human) MCF7 cells assessed as cellular growth after 48 hr by Alamar blue assay; assay type: functional; design: concentration or dose not given beside the values; conditions: not given

Row | Compound | Activity [%]
13 | CC(=O)NS(=O)(=O)c1ccc(-n2nc(-c3ccccc3)cc2C2=CC(=O)C=CC2=O)cc1 | <32
14 | CC1=NN(c2ccc(Br)cc2)C(=O)C1CC(=O)c1cc(O)ccc1O (stereo not drawn) | <32
15 | O=C(CC1C(=O)NN(c2ccc(Br)cc2)C1=O)c1cc(O)ccc1O (stereo not drawn) | <32
16 | COc1ccc(OC)c(-c2cc(-c3ccccc3)nn2-c2ccc(S(=O)(=O)NC(C)=O)cc2)c1 | <32

test system: SF-268; assay: Cytotoxicity against Homo sapiens (human) SF268 cells assessed as cellular growth after 48 hr by Alamar blue assay; assay type: functional; design: concentration or dose not given beside the values; conditions: not given

Row | Compound | Activity [%]
17 | CC(=O)NS(=O)(=O)c1ccc(-n2nc(-c3ccccc3)cc2C2=CC(=O)C=CC2=O)cc1 | <32
18 | CC1=NN(c2ccc(Br)cc2)C(=O)C1CC(=O)c1cc(O)ccc1O (stereo not drawn) | <32
19 | O=C(CC1C(=O)NN(c2ccc(Br)cc2)C1=O)c1cc(O)ccc1O (stereo not drawn) | <32
20 | COc1ccc(OC)c(-c2cc(-c3ccccc3)nn2-c2ccc(S(=O)(=O)NC(C)=O)cc2)c1 | <32

test system: not listed separately; assay: Cytotoxicity against Homo sapiens (human) breast cancer cells after 48 hr by SRB assay; assay type: functional; conditions: Cancer cell lines

Row | Compound | GI50 [µM] | TGI [µM]
21 | CC(=O)NS(=O)(=O)c1ccc(-n2nc(-c3ccccc3)cc2C2=CC(=O)C=CC2=O)cc1 | 78.5 | 100
22 | CC1=NN(c2ccc(Br)cc2)C(=O)C1CC(=O)c1cc(O)ccc1O (stereo not drawn) | 19.1 | 38.2
23 | O=C(CC1C(=O)NN(c2ccc(Br)cc2)C1=O)c1cc(O)ccc1O (stereo not drawn) | 16.1 | 40.9
24 | COc1ccc(OC)c(-c2cc(-c3ccccc3)nn2-c2ccc(S(=O)(=O)NC(C)=O)cc2)c1 | 9.7 | 44.5

same assay, conditions: Cancer cell lines, pooled result: one value given for 9 cell lines, strains, targets or settings

Row | Compound | LC50 (concentration giving 50% net cell kill) [µM]
25 | CC(=O)NS(=O)(=O)c1ccc(-n2nc(-c3ccccc3)cc2C2=CC(=O)C=CC2=O)cc1 | 100
26 | CC1=NN(c2ccc(Br)cc2)C(=O)C1CC(=O)c1cc(O)ccc1O (stereo not drawn) | 49.6
27 | O=C(CC1C(=O)NN(c2ccc(Br)cc2)C1=O)c1cc(O)ccc1O (stereo not drawn) | 49.9
28 | COc1ccc(OC)c(-c2cc(-c3ccccc3)nn2-c2ccc(S(=O)(=O)NC(C)=O)cc2)c1 | 77.1

test system: not listed separately; assay: Cytotoxicity against Homo sapiens (human) renal cancer cells after 48 hr by SRB assay; assay type: functional; conditions: Cancer cell lines

Row | Compound | GI50 [µM] | TGI [µM]
29 | CC(=O)NS(=O)(=O)c1ccc(-n2nc(-c3ccccc3)cc2C2=CC(=O)C=CC2=O)cc1 | 90 | 100
30 | CC1=NN(c2ccc(Br)cc2)C(=O)C1CC(=O)c1cc(O)ccc1O (stereo not drawn) | 39.8 | 46.1
31 | O=C(CC1C(=O)NN(c2ccc(Br)cc2)C1=O)c1cc(O)ccc1O (stereo not drawn) | 23.7 | 46.9
32 | COc1ccc(OC)c(-c2cc(-c3ccccc3)nn2-c2ccc(S(=O)(=O)NC(C)=O)cc2)c1 | 13.3 | 37.6

test system: not listed separately; assay: Cytotoxicity against Homo sapiens (human) ovarian cancer cells after 48 hr by SRB assay; assay type: functional; conditions: Cancer cell lines

Row | Compound | GI50 [µM] | TGI [µM]
33 | CC(=O)NS(=O)(=O)c1ccc(-n2nc(-c3ccccc3)cc2C2=CC(=O)C=CC2=O)cc1 | 100 | 100
34 | CC1=NN(c2ccc(Br)cc2)C(=O)C1CC(=O)c1cc(O)ccc1O (stereo not drawn) | 34.2 | 50
35 | O=C(CC1C(=O)NN(c2ccc(Br)cc2)C1=O)c1cc(O)ccc1O (stereo not drawn) | 26.2 | 44.3
36 | COc1ccc(OC)c(-c2cc(-c3ccccc3)nn2-c2ccc(S(=O)(=O)NC(C)=O)cc2)c1 | 13.3 | 50.7

test system: not listed separately; assay: Cytotoxicity against Homo sapiens (human) non-small cell lung cancer cells after 48 hr by SRB assay; assay type: functional; conditions: Cancer cell lines

Row | Compound | GI50 [µM] | TGI [µM]
37 | CC(=O)NS(=O)(=O)c1ccc(-n2nc(-c3ccccc3)cc2C2=CC(=O)C=CC2=O)cc1 | 100 | 100
38 | CC1=NN(c2ccc(Br)cc2)C(=O)C1CC(=O)c1cc(O)ccc1O (stereo not drawn) | 38.2 | 48.6
39 | O=C(CC1C(=O)NN(c2ccc(Br)cc2)C1=O)c1cc(O)ccc1O (stereo not drawn) | 21.7 | 48.4
40 | COc1ccc(OC)c(-c2cc(-c3ccccc3)nn2-c2ccc(S(=O)(=O)NC(C)=O)cc2)c1 | 15.3 | 49.8

test system: NCI-H460; assay: Cytotoxicity against Homo sapiens (human) NCI-H460 cells assessed as cellular growth after 48 hr by Alamar blue assay; assay type: functional; design: concentration or dose not given beside the values; conditions: not given

Row | Compound | Activity [%]
41 | CC(=O)NS(=O)(=O)c1ccc(-n2nc(-c3ccccc3)cc2C2=CC(=O)C=CC2=O)cc1 | <32
42 | CC1=NN(c2ccc(Br)cc2)C(=O)C1CC(=O)c1cc(O)ccc1O (stereo not drawn) | <32
43 | O=C(CC1C(=O)NN(c2ccc(Br)cc2)C1=O)c1cc(O)ccc1O (stereo not drawn) | <32
44 | COc1ccc(OC)c(-c2cc(-c3ccccc3)nn2-c2ccc(S(=O)(=O)NC(C)=O)cc2)c1 | <32

test system: not listed separately; assay: Cytotoxicity against Homo sapiens (human) CNS cancer cells after 48 hr by SRB assay; assay type: functional; conditions: Cancer cell lines

Row | Compound | GI50 [µM] | TGI [µM]
45 | CC(=O)NS(=O)(=O)c1ccc(-n2nc(-c3ccccc3)cc2C2=CC(=O)C=CC2=O)cc1 | 100 | 100
46 | CC1=NN(c2ccc(Br)cc2)C(=O)C1CC(=O)c1cc(O)ccc1O (stereo not drawn) | 25.8 | 46
47 | O=C(CC1C(=O)NN(c2ccc(Br)cc2)C1=O)c1cc(O)ccc1O (stereo not drawn) | 18.8 | 40.5
48 | COc1ccc(OC)c(-c2cc(-c3ccccc3)nn2-c2ccc(S(=O)(=O)NC(C)=O)cc2)c1 | 18.1 | 42.6

test system: not listed separately; assay: Cytotoxicity against Homo sapiens (human) prostate cancer cells after 48 hr by SRB assay; assay type: functional; conditions: Cancer cell lines

Row | Compound | GI50 [µM] | TGI [µM]
49 | CC(=O)NS(=O)(=O)c1ccc(-n2nc(-c3ccccc3)cc2C2=CC(=O)C=CC2=O)cc1 | 100 | 100
50 | CC1=NN(c2ccc(Br)cc2)C(=O)C1CC(=O)c1cc(O)ccc1O (stereo not drawn) | 42.2 | 50
51 | O=C(CC1C(=O)NN(c2ccc(Br)cc2)C1=O)c1cc(O)ccc1O (stereo not drawn) | 22.7 | 50
52 | COc1ccc(OC)c(-c2cc(-c3ccccc3)nn2-c2ccc(S(=O)(=O)NC(C)=O)cc2)c1 | 12 | 28.8
